IC50 data for 14 compounds are collected here from patent publication US20220340875A1, “METHODS OF CULTURING AND/OR EXPANDING STEM CELLS AND/OR LINEAGE COMMITTED PROGENITOR CELLS USING AMIDO COMPOUNDS” (IDEAYA BIOSCIENCES, INC., priority 2018, published 2022).

For this assay, the target named is T1, hAhR (Homo sapiens, UniProt P35869).
T1 construct: Stably integrated DRE-luciferase cell lines were generated by transducing the both cell lines with Cignal XRE luciferase reporter (Qiagen) lentiviral particles; endogenous in cells
T1 sequence (P35869 11-848): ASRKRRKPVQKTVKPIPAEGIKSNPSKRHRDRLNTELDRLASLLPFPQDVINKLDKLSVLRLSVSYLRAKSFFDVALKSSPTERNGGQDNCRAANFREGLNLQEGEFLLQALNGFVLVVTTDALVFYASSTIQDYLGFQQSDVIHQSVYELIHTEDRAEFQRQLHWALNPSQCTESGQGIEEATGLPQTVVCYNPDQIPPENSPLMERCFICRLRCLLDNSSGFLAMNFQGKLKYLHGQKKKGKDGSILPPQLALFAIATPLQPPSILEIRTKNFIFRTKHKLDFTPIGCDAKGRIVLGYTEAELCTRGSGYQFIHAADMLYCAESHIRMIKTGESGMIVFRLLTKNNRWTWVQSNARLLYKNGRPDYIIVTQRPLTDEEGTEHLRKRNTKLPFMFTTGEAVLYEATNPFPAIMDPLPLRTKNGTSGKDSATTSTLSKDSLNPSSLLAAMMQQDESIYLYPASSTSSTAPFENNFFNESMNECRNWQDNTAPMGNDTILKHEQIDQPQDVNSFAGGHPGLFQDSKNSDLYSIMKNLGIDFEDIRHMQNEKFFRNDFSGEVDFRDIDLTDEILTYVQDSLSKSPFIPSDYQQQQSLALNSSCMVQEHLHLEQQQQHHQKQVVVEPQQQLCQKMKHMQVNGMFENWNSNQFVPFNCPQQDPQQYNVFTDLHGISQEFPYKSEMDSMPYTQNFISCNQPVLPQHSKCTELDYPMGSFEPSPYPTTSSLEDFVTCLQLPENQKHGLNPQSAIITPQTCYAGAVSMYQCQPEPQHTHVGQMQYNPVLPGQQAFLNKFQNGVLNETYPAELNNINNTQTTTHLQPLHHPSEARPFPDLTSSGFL
In words: AhR DRE-luciferase reporter transcriptional assay, antagonist mode (TCDD-induced). It is filed as cell-based. Particulars: HEPG2 DRE-Luc cells, 3 nM TCDD, 24 hour incubation, relative IC50. The method, then:
HEPG2 and HEPA1C1C7 cells were maintained in MEM and αMEM without nucleosides supplemented with 10% heat inactivated FBS respectively. Stably integrated DRE-luciferase cell lines were generated by transducing the both cell lines with Cignal XRE luciferase reporter (Qiagen) lentiviral particles according to the manufacturer protocol. For both cell lines stably integrated reporter cell lines were selected for the presence of 2 µg/mL puromycin. Following selection of stably integrated cell line pools, clonal cell lines were isolated by limiting dilution in 96-well plates. Transcriptional assays were performed by seeding 100 μL of cells at a density of 250,000 or 100,000 cells/mL, for HEPG2 and HEPA1C1C7 DRE-Luc cells respectively, into 96-well cell culture plates in OptiMEM supplemented with 0.5% heat inactivated FBS and allowed to attach overnight. For modulator assays, the compounds were added in a semi-log dose response using a D300e Digital Dispenser (Tecan) followed normalization with vehicle (DMSO). Immediately following compound addition 10 μL of 2,3,7,8-Tetrachlorodibenzo-p-dioxin (TCDD) was added to the cells to a final concentration of 3 nM or 0.3 nM for the HEPG2 and HEPA1C1C7 DRE-Luc cells respectively. Following 24 hour incubation the medium was removed and the cells were lysed in 25 μL of Reporter Lysis Buffer (Promega). Firefly luciferase activity was measured immediately following the addition of 50 μL Luciferase Assay Reagent (Promega). The percent maximal activity for each point was determined using the following equasion: (RLUsample-RLUvehicle−TCDD)/(RLUvehicle+TCDD RLUvehicle−TCDD)*100. The relative IC50, defined as the compound concentration required to reduce the TCDD induced response between the top and bottom plateau of each individual dose response curve by half, for each compound was determined using Prism 7 (GraphPad Software).
On the technique in general: A reporter such as luciferase makes a cellular process visible.
In the case of `Cc1cc(-c2ccc3cc(F)ccc3n2)ccc1NC(=O)c1cocn1` [Example 036, N-(4-(6-fluoroquinolin-2-yl)-2-methylphenyl)oxazole-4-carboxamide], the IC50 lay in the range of 500 to 1000 nM.
The result for `Cc1cc(-c2ccc3nc(C(F)(F)F)ccc3n2)ccc1N(C)C(=O)c1ccnn1CCO` [Example 210, 1-(2-hydroxyethyl)-N-methyl-N-(2-methyl-4-(6-(trifluoromethyl)-1,5-naphthyridin-2-yl)phenyl)-1H-pyrazole-5-carboxamide] reads < 200 nM.
Take `Cc1cc(C(=O)Nc2ccc(-c3ncc4nc(C(F)(F)F)cc(C)c4n3)cc2C)ccn1` [Example 149, 2-methyl-N-(2-methyl-4-(8-methyl-6-(trifluoromethyl)pyrido[3,2-d]pyrimidin-2-yl)phenyl)isonicotinamide]: the IC50 was < 200 nM.
Take `Cc1cc(-c2ccc3cc(F)ccc3n2)ccc1NC(=O)c1ccnn1C` [Example 014, N-(4-(6-fluoroquinolin-2-yl)-2-methylphenyl)-1-methyl-1H-pyrazole-5-carboxamide]: the IC50 fell in the range of 200 to 500 nM.
As to `COC(=O)N(C)c1ccc(-c2ncc3cc(C(F)(F)F)ccc3n2)cc1C` [Example 128, methyl methyl(2-methyl-4-(6-(trifluoromethyl)quinazolin-2-yl)phenyl)carbamate], the IC50 was < 200 nM.
Regarding `Cc1cc(-c2ncc3nc(C(F)(F)F)cc(C)c3n2)ccc1N(C)C(=O)c1ccnn1CCN1CCCC1` [Example 182, N-methyl-N-(2-methyl-4-(8-methyl-6-(trifluoromethyl)pyrido[3,2-d]pyrimidin-2-yl)phenyl)-1-(2-(pyrrolidin-1-yl)ethyl)-1H-pyrazole-5-carboxamide], the half-maximal inhibitory concentration (IC50) was < 200 nM.
For `Cc1cc(-c2ccc3cc(F)cc(C(F)(F)F)c3n2)ccc1NC(=O)c1ccnn1C` [Example 058, N-(4-(6-fluoro-8-(trifluoromethyl)quinolin-2-yl)-2-methylphenyl)-1-methyl-1H-pyrazole-5-carboxamide], the IC50 is 200 to 500 nM.
`Cn1nccc1C(=O)Nc1ccc(-c2ccc3cc(F)ccc3n2)cc1OC(F)(F)F` [Example 047, N-(4-(6-fluoroquinolin-2-yl)-2-(trifluoromethoxy)phenyl)-1-methyl-1H-pyrazole-5-carboxamide] displayed an IC50 of 1000 to 10000 nM.
As for `COc1cnccc1C(=O)N(C)c1ccc(-c2ncc3nc(C(F)(F)F)cc(C)c3n2)cc1C` [Example 183, 3-methoxy-N-methyl-N-(2-methyl-4-(8-methyl-6-(trifluoromethyl)-pyrido[3,2-d]pyrimidin-2-yl)phenyl)isonicotinamide], the IC50 was < 200 nM.
On to `[2H]C([2H])([2H])N(C(=O)c1ccnn1C)c1ccc(-c2ccc3cc(C(F)(F)F)ccc3n2)cc1C` [Example 212, 1-methyl-N-(methyl-d3)-N-(2-methyl-4-(6-(trifluoromethyl)quinolin-2-yl)phenyl)-1H-pyrazole-5-carboxamide], for which the IC50 was < 200 nM.
As to `Cc1cc(-c2ccc3cc(C(F)(F)F)cc(C)c3n2)ccc1NC(=O)c1ccnn1C` [Example 203, 1-methyl-N-(2-methyl-4-(8-methyl-6-(trifluoromethyl)quinolin-2-yl)phenyl)-1H-pyrazole-5-carboxamide], the IC50 was < 200 nM.
For `Cc1cc(-c2ccc3cc(F)ccc3n2)ccc1NC(=O)c1cnccn1` [Example 032, N-(4-(6-fluoroquinolin-2-yl)-2-methylphenyl)pyrazine-2-carboxamide] the value was 500 to 1000 nM; for `Cc1cc(-c2ccc3cc(F)cc(Br)c3n2)ccc1NC(=O)c1ccnn1C` [Example 051, N-(4-(8-bromo-6-fluoroquinolin-2-yl)-2-methylphenyl)-1-methyl-1H-pyrazole-5-carboxamide], < 200 nM; for `Cc1cc(-c2ncc3nc(C(F)(F)F)cc(C)c3n2)ccc1N(C)C(=O)c1ccnc(C(N)=O)c1` [Example 168, N4-methyl-N4-(2-methyl-4-(8-methyl-6-(trifluoromethyl)pyrido[3,2-d]pyrimidin-2-yl)phenyl)pyridine-2,4-dicarboxamide], < 200 nM.

Usually IC50 stands for the concentration that inhibits the measured activity by half.
